No end group written: not given here.
How the values were obtained:
Format in all cases: binding
EVH1 domain (VASP-EVH1) [1] = target: T1, EVH1 domain (VASP-EVH1) (Homo sapiens, UniProt P50552); assay: Bonding affinity to EVH1 domain by fluorescence titration
From the text: (§1) With the aid of the synthetic compound 85, by way of an example, the ligand peptides were synthetized with partially or completely substituted proline sequences and then examined for their interaction with the EVH1 domain (p=component 85). It was found therein that, due to the insertion of the mimetic 85, it was possible to increase the bonding affinity of the ligand peptides relative to the domain.
(§2) This is summarized in Table 1 below, which lists the bonding affinities of the ligand peptides as well as of the underlying native peptide ligands.
(§3) The bonding affinities were determined by means of fluorescence titration and isothermal calorimetry (p=component 85, wherein x denotes the already known PPII-mimetic amino acid according to structure 86 (presently as Fmoc-protected amino acid); and “2-Cl—F” stands for 2-Cl-phenylalanine).

EVH1 domain (VASP-EVH1) [2] = target: T1, EVH1 domain (VASP-EVH1); assay: Bonding affinity to EVH1 domain by isothermal calorimetry (ITC)
From the text: as §1, §2, §3

VASP-EVH1 = VASP-EVH1 (Homo sapiens, UniProt P50552); assay: Further experiments: bonding affinity of ligand peptides to the domain (method not given)
Sequence of VASP-EVH1 (P50552 2-113 limits assumed): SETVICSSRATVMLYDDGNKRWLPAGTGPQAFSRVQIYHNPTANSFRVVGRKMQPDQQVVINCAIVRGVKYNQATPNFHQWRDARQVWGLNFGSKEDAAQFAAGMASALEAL
From the text: In addition, the observed increase in affinity with the compounds according to the invention allows for the first time ever to forego using natural amino acids completely, while still preserving the ability to bind to the EVH1 domains: […]

VASP-EVH1 domain = VASP-EVH1 domain (Homo sapiens, UniProt P50552)
Sequence of VASP-EVH1 domain (P50552 2-113): as the sequence (P50552 2-113 limits assumed) above
From the text: In addition, based on a number of different test ligand peptides, it was possible to gain an overview of the bonding affinities.

T1 sequence (P50552 2-113): as the sequence (P50552 2-113 limits assumed) above

## CC(=O)N[C@@H](CO)C(=O)N[C@@H](Cc1ccccc1)C(=O)N[C@@H](CCC(=O)O)C(=O)N[C@@H](Cc1ccccc1Cl)C(=O)N1CCC[C@H]1C(=O)N1CCC[C@H]1C(=O)N1CCC[C@H]1C(=O)N1CCC[C@H]1C(=O)N[C@H](C(=O)N[C@@H](CCC(=O)O)C(=O)N[C@@H](CC(=O)O)C(=O)N[C@@H](CCC(=O)O)C(=O)N[C@@H](CC(C)C)C(N)=O)[C@@H](C)O
EVH1 domain (VASP-EVH1) [1]
  Kd: 5 µM
EVH1 domain (VASP-EVH1) [2]
  Kd: 2 µM

## Ac-FPPPP [Ac-(SEQ ID NO: 4)-OH]
VASP-EVH1
  Kd: > 500 µM

## FPPPPT [FPPPPT]
VASP-EVH1 domain
  bonding affinity KD: no measurable affinity

— US9242985B2, “Structural mimetics of proline-rich peptides and use thereof” (priority 2011, dated 2016)
